Laboratory results published in publication PMC5485657 (The Journal of Venomous Animals and Toxins Including …, 2017).
Ends that are not written are not given here.

How the values were obtained:
[1] = system: BK-induced rat paw edema; assay: Bradykinin-potentiating activity in vivo (rat paw edema); parameters: species or system Male Wistar rats; settings: intraplantar BK 40 ng/mL (2 ng in 50 μL saline)
Experimental: Male Wistar (200 g-250 g) rats, bred at the Nuclear and Energy Research Institute (IPEN), São Paulo, SP, Brazil were used for the in vivo assays. The animals had access to food and water ad libitum, and were kept under a 12 h-light/dark cycle. Procedures involving animals and their care were in accordance with the guidelines for the use of animals on biomedical research and were approved by the Animal Ethics Committee (protocol 171/16) of IPEN.
Edema was induced by intraplantar injection of 2 ng of BK diluted in 50 μL saline into the left hind paw, which was measured every 5 min for 40 min by a plethysmograph (H. Basile, Italy). The right paw was injected with 50 μL […] saline (NaCl 0.9% w/v). In parallel, a group was injected with the synthetic potentiating peptide (40 ng/mL) in the left paw 10 min before the injection of BK, in order to evaluate the potentiation of BK. In both cases, the volume of the right paw was subtracted from that of volume of the left paw, to give net edema, expressed in μL.
One-way analysis of variance (ANOVA) was performed. The significance level was considered as p < 0.05.

[2] = system: paw edema; parameters: method as in PMID 15688321; settings: previous study, similar approach; cited from earlier work

**Q.** With “Bradykinin (RPPGFSPFR; also: acetate salt; UniProt P01042 381-389, looked up) [BK]” as the substance, how does the “time at which induced edema was detectable” value ([1]; plethysmograph) read?
**A.** The value was 5 min.

**Q.** And the “time course of edema (in words)” value ([1]; plethysmograph every 5 min for 40 min)?
**A.** The value was “declined at a constant rate over the next 40 min”.

**Q.** With QWAQWPRPQIPP [BPP9a, B. jararaca BPP9a] as the substance, how does the “paw edema (in words)” value [2] read?
**A.** The value was “intense and fast paw edema”.
